# Results reported in ChEMBL document CHEMBL4270535, “Facile synthesis of vanillin-based novel bischalcones identifies one that induces apoptosis and displays synergy with Artemisinin in killing chloroquine resistant Plasmodium falciparum” (Eur J Med Chem, 2018).
# pIC50: −log10 of the molar value.
# Tests used:
# Plasmodium falciparum [1] = assay: Antiplasmodial activity against synchronized ring stage of chloroquine-sensitive Plasmodium falciparum 3D7 infected in human erythrocytes after 48 hrs by SYBR Green 1 dye based fluorescence assay; format: functional, organism-based; details: 3D7, 48 h
# [2] = Selectivity index, ratio of IC50 for human HeLa cells to IC50 for synchronized ring stage of chloroquine-sensitive Plasmodium falciparum 3D7 infected in human erythrocytes; format: toxicity, cell-based; details: read-out: Ratio IC50
# [3] = Resistance index, ratio of IC50 for synchronized ring stage of chloroquine-resistant Plasmodium falciparum Dd2 infected in human erythrocytes to IC50 for synchronized ring stage of chloroquine-sensitive Plasmodium falciparum 3D7 infected in human erythrocytes; format: functional
# Plasmodium falciparum [4] = assay: Antiplasmodial activity against synchronized ring stage of chloroquine-resistant Plasmodium falciparum INDO infected in human erythrocytes after 48 hrs by SYBR Green 1 dye based fluorescence assay; format: functional, organism-based
# [5] = Selectivity index, ratio of IC50 for mouse L929 cells to IC50 for synchronized ring stage of chloroquine-sensitive Plasmodium falciparum 3D7 infected in human erythrocytes; format: toxicity, cell-based; details: read-out: Ratio IC50
# Plasmodium falciparum [6] = assay: Antiplasmodial activity against synchronized ring stage of chloroquine-resistant Plasmodium falciparum Dd2 infected in human erythrocytes after 48 hrs by SYBR Green 1 dye based fluorescence assay; format: functional, organism-based; details: Dd2, 48 h
# [7] = Resistance index, ratio of IC50 for synchronized ring stage of chloroquine-resistant Plasmodium falciparum INDO infected in human erythrocytes to IC50 for synchronized ring stage of chloroquine-sensitive Plasmodium falciparum 3D7 infected in human erythrocytes; format: functional
Compound,pIC50 (Plasmodium falciparum [1]),selectivity ratio [2],Ratio IC50 [3],pIC50 (Plasmodium falciparum [4]),selectivity ratio [5],pIC50 (Plasmodium falciparum [6]),Ratio IC50 [7]
C=CCOc1c(OC)cc(/C=C/C(=O)c2ccc(Cl)cc2)cc1-c1cc(/C=C/C(=O)c2ccc(Cl)cc2)cc(OC)c1OCC=C,< 4.30,–,–,–,–,–,–
C=CCOc1c(OC)cc(/C=C/C(=O)c2ccc(OC)cc2)cc1-c1cc(/C=C/C(=O)c2ccc(OC)cc2)cc(OC)c1OCC=C,4.24,–,–,–,–,–,–
C=CCOc1ccc(/C=C/C(=O)c2cccc(C(=O)/C=C/c3ccc(OCC=C)c(OC)c3)c2)cc1OC,< 4.30,–,–,–,–,–,–
C=CCOc1c(OC)cc(/C=C/C(=O)c2ccc(OCCC)cc2)cc1-c1cc(/C=C/C(=O)c2ccc(OCCC)cc2)cc(OC)c1OCC=C,5.82,> 66.7,7.7,4.91,> 66.7,4.94,8.1
C=CCOc1c(OC)cc(/C=C/C(=O)c2ccc(Br)cc2)cc1-c1cc(/C=C/C(=O)c2ccc(Br)cc2)cc(OC)c1OCC=C,< 4.30,–,–,–,–,–,–
C=CCOc1c(OC)cc(/C=C/C(=O)c2ccc3c(c2)OCO3)cc1-c1cc(/C=C/C(=O)c2ccc3c(c2)OCO3)cc(OC)c1OCC=C,4.42,> 2.6,0.1,5.42,> 2.6,5.42,0.1
C=CCOc1c(OC)cc(/C=C/C(=O)c2ccc([N+](=O)[O-])cc2)cc1-c1cc(/C=C/C(=O)c2ccc([N+](=O)[O-])cc2)cc(OC)c1OCC=C,4.60,> 4,0.37,5.30,3.2,5.03,0.2
